Molecules are shown by their SMILES.

Assay [1] in a line: activity of the optically resolved components of Production Example 1 (test not stated). The note with it: fractions from optical resolution on CHIRALPAK AD-H.
In assay [2] the target is T1, intracellular LCE in H2.35 cells originating in mouse liver (Mus musculus, UniProt Q920L5).
T1 construct: endogenous in cells; host or cells: H2.35 mouse liver cells
T1 sequence (Q920L5 1-267): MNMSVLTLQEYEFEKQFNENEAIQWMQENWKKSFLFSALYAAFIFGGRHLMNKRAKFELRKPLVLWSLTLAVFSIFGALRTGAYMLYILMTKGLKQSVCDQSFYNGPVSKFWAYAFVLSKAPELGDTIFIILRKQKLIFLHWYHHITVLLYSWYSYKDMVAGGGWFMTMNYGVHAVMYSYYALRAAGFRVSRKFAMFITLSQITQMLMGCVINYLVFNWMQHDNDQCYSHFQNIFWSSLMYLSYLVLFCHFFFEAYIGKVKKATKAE
As to the kind of experiment: Intracellular LCE activity inhibition test. The format is cell-based. The note with it: [14C]-palmitoyl CoA, C18/C16 ratio by radio HPLC. As for the experimental part: Cultured H2.35 cells originating in mouse liver were maintained in DMEM (GIBCO) containing 4% calf serum and 200 nM dexamethasone and cultured at 33° C. in the presence of 5% CO2. About 2.5×10^5 H2.35 cells were pipetted into a 24-well cell culture plate (Corning, 24-Well Cell Culture Cluster) and cultured overnight at 33° C. in the presence of 5% CO2. […] After culturing for 1 hour at 33° C. in the presence of 5% CO2, [^14C]-palmitoyl CoA (2.13 GBq/mmol, manufactured by Perkin Elmer) was added to each well and culture was conducted for additional 4 hours at 33° C. in the presence of 5% CO2. Next, each well was washed with ice-cooled phosphate-buffered physiological saline and 250 μl of 2M sodium hydroxide was added to cease the reaction. Then, the reaction solution in each well was transferred into a glass test tube and incubated at 70° C. for 1 hour. After adding 100 μl of a 5N hydrogen chloride solution, fatty acids were extracted with petroleum ether. Then [^14C]-labeled fatty acids were quantified by radio HPLC and the ratio of the amount of fatty acids having carbon chains consisting of 18 carbon atoms to the amount of those having carbon chains consisting of 16 carbon atoms (C18/C16 ratio) was calculated. The intracellular LCE inhibition activity of the test compound was calculated, based on the C18/C16 ratio of the well containing test compound-free DMSO as a control.

A further assay concerns the target T2, human LCE (Homo sapiens, UniProt Q9H5J4).
T2 sequence (Q9H5J4 1-265): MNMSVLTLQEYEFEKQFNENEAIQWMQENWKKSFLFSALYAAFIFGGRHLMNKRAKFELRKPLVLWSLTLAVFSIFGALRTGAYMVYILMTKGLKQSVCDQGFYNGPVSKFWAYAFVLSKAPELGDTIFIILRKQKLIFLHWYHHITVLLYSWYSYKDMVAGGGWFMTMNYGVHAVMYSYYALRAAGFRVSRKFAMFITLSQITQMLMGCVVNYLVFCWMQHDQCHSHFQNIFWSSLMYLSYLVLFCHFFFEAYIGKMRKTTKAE
In words: LCE enzyme activity inhibition test. The format is biochemical. As to conditions: palmitoyl CoA and [14C]-malonyl CoA, 37° C. for 90 minutes. The procedure:
The LCE enzyme activity inhibition test was carried out according to a modification of the method of Moon et al., J. Biol. Chem., Vol. 276, pp. 45358 to 45366 (2001). Namely, 1.0 μl of the diluted test compound was added to each well of a 96-well assay plate (Corning, 96-Well Assay Block). Next, 50 μl of a phosphate buffer solution (100 mM potassium phosphate buffer solution, pH 6.5) and 25 μl of a substrate solution (in 100 mM potassium phosphate buffer solution (pH 6.5), 4.0 μM rotenone, 80 μM fatty acid-free bovine serum albumin, 160 μM palmitoyl CoA, 80 μM malonyl CoA, 3.5 μM [^14C]-malonyl CoA (1.92 GBq/mmol, manufactured by Amersham) were added to each well. Further, 25 μl of an enzyme solution (in 100 mM potassium phosphate buffer solution (pH 6.5), 100 μg/ml human LCE) was added thereto. Then, the upper side of the plate was sealed up, and the plate was incubated with gently stirring at 37° C. for 90 minutes. Subsequently, 100 μl of 5 N HCl was added to each well. The reaction was ceased by stirring the assay plate at room temperature for 5 minutes and acyl CoA was hydrolyzed. Subsequently, the enzyme reaction solution in each well was adsorbed by each well of a 96-well GF/C filter plate (Perkin Elmer Unifilter 96GF/C) through which water had been preliminarily passed. After washing each well with water to remove unabsorbed malonyl CoA, the GF/C filter plate was dried at 50° C. for 60 minutes. Next, 30 μl of a scintilator (Perkin Elmer, Microschinti 0) was added to each well and the upper side of the plate was sealed up. The radioactivity of the thus fixed [^14C] was measured with a microplate scintillation counter (Perkin Elmer, Topcount) and the obtained value was referred to as the enzyme activity. The human LCE enzyme inhibition activity of the test compound was calculated, based on the radioactivity of the well containing test compound-free DMSO as a control.

In the case of `Cc1[nH]n(-c2ccccc2)c(=O)c1C1(C(F)(F)F)C(=O)N(c2ccccc2)C2=C1C(=O)CC(C)(C)C2` (centres unmarked) [3-(2,5-dihydro-3-methyl-5-oxo-1-phenyl-1H-pyrazol-4-yl)-3,5,6,7-tetrahydro-6,6-dimethyl-1-phenyl-3-trifluoromethyl-1H-indole-2,4-dione], the “identified as being active” value in assay [1] was “active”.
Consider `COc1ccc(-n2[nH]c(C)c(C3(C(F)(F)F)C(=O)N(c4ccccc4)C4=C3C(=O)CC(C)(C)C4)c2=O)cc1` (centres unmarked) [Production Example 26, 3-[2,5-dihydro-1-(4-methoxyphenyl)-3-methyl-5-oxo-1H-pyrazol-4-yl]-3,5,6,7-tetrahydro-6,6-dimethyl-1-phenyl-3-trifluoromethyl-1H-indole-2,4-dione], for which, in assay [2], the IC50 was determined as 3.1 nM.
`Cc1[nH]n(-c2ccc(C(F)(F)F)cc2)c(=O)c1C1(C(F)(F)F)C(=O)N(c2ccccc2)C2=C1C(=O)CC(C)(C)C2` (centres unmarked) [Production Example 29, 3-[2,5-dihydro-3-methyl-5-oxo-1-(4-trifluoromethylphenyl)-1H-pyrazol-4-yl]-3,5,6,7-tetrahydro-6,6-dimethyl-1-phenyl-3-trifluoromethyl-1H-indole-2,4-dione]: the IC50 in assay [2] was determined as 1.2 nM; against human LCE it was 23 nM.
For `Cc1[nH]n(-c2ccc(C#N)cc2)c(=O)c1C1(C(F)(F)F)C(=O)N(c2ccccc2)C2=C1C(=O)CC(C)(C)C2` (centres unmarked) [Production Example 31, 3-[1-(4-cyanophenyl)-2,5-dihydro-3-methyl-5-oxo-1H-pyrazol-4-yl]-3,5,6,7-tetrahydro-6,6-dimethyl-1-phenyl-3-trifluoromethyl-1H-indole-2,4-dione], the IC50 in assay [2] came to 5.4 nM.
Consider `Cc1[nH]n(-c2ccc(C(C)(C)C)cc2)c(=O)c1C1(C(F)(F)F)C(=O)N(c2ccccc2)C2=C1C(=O)CC(C)(C)C2` (centres unmarked) [Production Example 35, 3-[1-(4-tert-butylphenyl)-2,5-dihydro-3-methyl-5-oxo-1H-pyrazol-4-yl]-3,5,6,7-tetrahydro-6,6-dimethyl-1-phenyl-3-trifluoromethyl-1H-indole-2,4-dione], for which the IC50 in assay [2] turned out to be 4.2 nM; on human LCE it was 15 nM.
For the compound `Cc1[nH]n(-c2ccc(OC(F)(F)F)cc2)c(=O)c1C1(C(F)(F)F)C(=O)N(c2ccccc2)C2=C1C(=O)CC(C)(C)C2` (centres unmarked) [Production Example 36, 3-[2,5-dihydro-3-methyl-5-oxo-1-(4-trifluoromethoxyphenyl)-1H-pyrazol-4-yl]-3,5,6,7-tetrahydro-6,6-dimethyl-1-phenyl-3-trifluoromethyl-1H-indole-2,4-dione], in assay [2], the IC50 stood at 0.6 nM.
Consider `Cc1[nH]n(-c2ccc(OC(C)C)cc2)c(=O)c1C1(C(F)(F)F)C(=O)N(c2ccccc2)C2=C1C(=O)CC(C)(C)C2` (centres unmarked) [Production Example 40, 3-[2,5-dihydro-1-(4-isopropoxyphenyl)-3-methyl-5-oxo-1H-pyrazol-4-yl]-3,5,6,7-tetrahydro-6,6-dimethyl-1-phenyl-3-trifluoromethyl-1H-indole-2,4-dione], for which the results for the IC50 (in assay [2]; against human LCE) were 38 nM and 30 nM, respectively.
On the same counts, the results for `Cc1[nH]n(-c2ccc(-c3ccccc3)cc2)c(=O)c1C1(C(F)(F)F)C(=O)N(c2ccccc2)C2=C1C(=O)CC(C)(C)C2` (centres unmarked) [Production Example 42, 3-[2,5-dihydro-3-methyl-5-oxo-1-(biphenyl-4-yl)-1H-pyrazol-4-yl]-3,5,6,7-tetrahydro-6,6-dimethyl-1-phenyl-3-trifluoromethyl-1H-indole-2,4-dione] are 25 nM and 22 nM.
With `Cc1[nH]n(-c2ccc(S(C)(=O)=O)cc2)c(=O)c1C1(C(F)(F)F)C(=O)N(c2ccccc2)C2=C1C(=O)CC(C)(C)C2` (centres unmarked) [Production Example 44, 3-[2,5-dihydro-3-methyl-(4-methylsulfonylphenyl)-5-oxo-1H-pyrazol-4-yl]-3,5,6,7-tetrahydro-6,6-dimethyl-1-phenyl-3-trifluoromethyl-1H-indole-2,4-dione], the IC50 in assay [2] came out at 7 nM; at human LCE, 8.9 nM.

The IC50 is the midpoint of a concentration-inhibition curve.

For the origin of these results see patent US8106086B2, “Indoledione derivative” (MSD K.K., priority 2007, dated 2012).
